The source of these data is US20030215462A1, “Use of UGT inhibitors to increase bioavailability” (priority 2001, published 2003).

“And” between values parts separate entries of the source, which are not always exact repeats. Identical values can stand only once.

Data set [1] concerns UGT enzymes of human liver microsomes. As to the kind of experiment: Inhibition of 7-HFC glucuronidation in human liver microsomes. The class given is biochemical. Particulars: 7-HFC 50 μM, human liver microsomes 100 μg/ml, 15 min. (In general: Liver microsomes are a subcellular fraction often used to study metabolism.)
Data set [2] has the same test system. The data set can be described thus: Inhibition of 2ME2 glucuronidation (MG1, MG2) in human liver microsomes. The class given is biochemical. Particulars: liver 062101, 2ME2 50 μM. An excerpt:
Compounds were eluted using a binary solvent gradient system where solvent A was dilute phosphoric acid (pH 3) and solvent B was 80:20 acetonitrile-methanol. […] Detection was at 280 nm.

The target in the next data set is T1, UGT1A1 (Homo sapiens, UniProt P22309).
T1 sequence (P22309 26-533): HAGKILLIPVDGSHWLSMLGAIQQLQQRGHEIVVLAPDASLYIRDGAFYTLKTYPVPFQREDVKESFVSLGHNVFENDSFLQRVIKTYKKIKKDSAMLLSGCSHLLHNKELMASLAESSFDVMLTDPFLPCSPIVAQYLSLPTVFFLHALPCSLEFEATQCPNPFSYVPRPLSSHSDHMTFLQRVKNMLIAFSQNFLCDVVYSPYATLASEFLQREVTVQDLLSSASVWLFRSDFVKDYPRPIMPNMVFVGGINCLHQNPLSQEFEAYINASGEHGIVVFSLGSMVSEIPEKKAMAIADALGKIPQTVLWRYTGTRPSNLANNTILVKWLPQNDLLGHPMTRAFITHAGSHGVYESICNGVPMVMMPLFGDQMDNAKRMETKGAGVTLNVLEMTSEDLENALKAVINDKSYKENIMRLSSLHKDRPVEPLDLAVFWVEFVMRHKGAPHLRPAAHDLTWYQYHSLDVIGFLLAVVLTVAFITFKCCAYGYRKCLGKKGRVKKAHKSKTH
As to the kind of experiment: in vitro.

In another data set the target is T2, UGT1A9 (Homo sapiens, UniProt O60656).
T2 sequence (O60656 26-530): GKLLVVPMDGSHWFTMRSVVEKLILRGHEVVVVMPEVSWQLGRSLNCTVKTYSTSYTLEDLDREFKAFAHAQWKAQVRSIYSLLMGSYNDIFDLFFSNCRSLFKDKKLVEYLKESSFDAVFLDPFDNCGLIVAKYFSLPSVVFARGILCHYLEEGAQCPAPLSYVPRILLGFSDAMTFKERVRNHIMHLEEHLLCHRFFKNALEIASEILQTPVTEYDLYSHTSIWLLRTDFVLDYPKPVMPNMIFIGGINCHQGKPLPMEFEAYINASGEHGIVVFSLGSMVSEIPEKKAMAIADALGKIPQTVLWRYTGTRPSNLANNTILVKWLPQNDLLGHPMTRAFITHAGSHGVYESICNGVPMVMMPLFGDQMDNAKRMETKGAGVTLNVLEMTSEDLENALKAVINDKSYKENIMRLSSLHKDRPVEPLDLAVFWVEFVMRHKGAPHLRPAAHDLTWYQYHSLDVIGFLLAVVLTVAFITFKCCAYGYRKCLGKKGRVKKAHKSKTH
The data set can be described thus: in vitro.

In the next data set the target is UGT1A4 (Homo sapiens, UniProt P22310).
Chain of UGT1A4 (P22310 29-534): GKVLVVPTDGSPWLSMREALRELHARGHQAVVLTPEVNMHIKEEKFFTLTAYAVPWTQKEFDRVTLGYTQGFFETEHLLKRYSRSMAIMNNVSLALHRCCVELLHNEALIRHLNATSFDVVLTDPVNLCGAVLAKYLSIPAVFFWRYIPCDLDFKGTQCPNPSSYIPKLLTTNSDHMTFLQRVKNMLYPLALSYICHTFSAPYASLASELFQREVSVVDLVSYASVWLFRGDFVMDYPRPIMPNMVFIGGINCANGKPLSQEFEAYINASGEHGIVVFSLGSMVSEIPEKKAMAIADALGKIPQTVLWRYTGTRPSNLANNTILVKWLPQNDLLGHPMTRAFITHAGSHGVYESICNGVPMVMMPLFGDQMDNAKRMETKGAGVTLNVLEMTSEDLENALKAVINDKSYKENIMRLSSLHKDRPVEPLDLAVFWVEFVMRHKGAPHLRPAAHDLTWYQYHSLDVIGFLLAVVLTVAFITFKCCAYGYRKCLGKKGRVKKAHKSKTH
The target of a further data set is T3, UGT2B7 (Homo sapiens, UniProt P16662).
T3 sequence (P16662 24-529): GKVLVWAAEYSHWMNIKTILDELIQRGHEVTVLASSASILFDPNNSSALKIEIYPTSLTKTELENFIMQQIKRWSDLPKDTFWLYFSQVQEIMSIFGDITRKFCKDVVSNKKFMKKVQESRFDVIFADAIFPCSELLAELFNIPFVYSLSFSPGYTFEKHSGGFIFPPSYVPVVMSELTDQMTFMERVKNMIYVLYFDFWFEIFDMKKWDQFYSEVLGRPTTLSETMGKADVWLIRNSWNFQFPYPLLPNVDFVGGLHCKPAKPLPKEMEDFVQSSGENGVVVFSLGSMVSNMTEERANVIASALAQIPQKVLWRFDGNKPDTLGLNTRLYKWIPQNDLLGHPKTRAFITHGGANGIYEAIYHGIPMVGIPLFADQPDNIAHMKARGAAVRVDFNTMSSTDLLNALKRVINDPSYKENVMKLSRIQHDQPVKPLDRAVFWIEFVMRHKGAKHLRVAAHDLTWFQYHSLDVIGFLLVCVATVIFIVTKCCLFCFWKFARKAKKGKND
Particulars: 30 min, 100 μM, pH 7.5.

Where [3] appears, read: pH 7.5, % of control metabolism, raloxifene G1.
[4] abbreviates: pH 7.5, % of control metabolism, raloxifene G2.
Setting [5] is: pH 7.5, Inhibition of raloxifene glucuronidation, G1, UGT1A1.
Setting [6] is: pH 7.5, Inhibition of raloxifene glucuronidation, G2, UGT1A1.
[7] abbreviates: pH 7.5, Inhibition of raloxifene glucuronidation, UGT1A9, first line per inhibitor (G1).
Setting [8] is: pH 7.5, Inhibition of raloxifene glucuronidation, UGT1A9, second line per inhibitor (G2).

Procedure for UGT1A1: (§1) Compounds were eluted using a binary solvent gradient system. Solvent A was water brought to pH 8 with NH4OH. Solvent B was methanol. Solvent flow rate was 1 ml/min and the column temperature was maintained at 50° C. Detection was at 280 nm. […] The system was then returned to the initial conditions and equilibrated for 3 min.
Procedure for UGT1A9: as §1

For `CC/C(=C(/CC)c1ccc(O)cc1)c1ccc(O)cc1` [Diethylstilbestrol, reference compound], the “% of control metabolism (SD, n = 3), 7-HFC glucuronidation” value in data set [1] (inhibitor 5 μM) was 90 (3) %; in data set [1] (inhibitor 10 μM) it was 80 (4) %. Besides, the “residual metabolism (% of control), 2ME2 MG1” value in data set [2] (inhibitor 1 μM) is reported as 88 (2) %; in data set [2] (inhibitor 10 μM), 72 (2) %. Moreover, the “residual metabolism (% of control), 2ME2 MG2” value in data set [2] (inhibitor 1 μM) was 335 (5) %; in data set [2] (inhibitor 10 μM), 632 (4) %.

`O=C(O)c1cc(-c2ccc(F)cc2F)ccc1O` [Diflunisal, reference compound]: the activity at 15 min, 25 µM on UGT1A1 (setting [3]), on UGT1A1 (setting [4]), at UGT1A1 (setting [5]) and at UGT1A1 (setting [6]) was 53% each time. Besides, the activity at 15 min, 50 µM was 31% on UGT1A1 (setting [3]); 33% at UGT1A1 (setting [4]); 31% on UGT1A1 (setting [5]); 33% on UGT1A1 (setting [6]); 50% on UGT1A9 (setting [3]); 43% on UGT1A9 (setting [4]).

In the case of `O=C(O[C@@H]1Cc2c(O)cc(O)cc2O[C@@H]1c1ccc(O)c(O)c1)c1cc(O)c(O)c(O)c1` [Epicatechin gallate], the activity at 15 min, 25 µM on UGT1A1 (setting [3]) was 39%; on UGT1A1 (setting [4]) it was 43%; on UGT1A1 (setting [5]), 39%; at UGT1A1 (setting [6]), 43%. In addition, the activity at 15 min, 50 µM on UGT1A1 (setting [3]) is 23%; on UGT1A1 (setting [4]), 25%; at UGT1A1 (setting [5]) it was 23%; at UGT1A1 (setting [6]), 25%; at UGT1A9 (setting [3]), 48%; at UGT1A9 (setting [4]), 45%.

Consider `C=CCc1ccc(O)c(OC)c1` [Eugenol], for which the activity at 15 min, 50 µM on UGT1A1 (pH 7.5, % of control metabolism, raloxifene G1, UGT1A1, inhibitor 50 μM) came to 85%; at UGT1A1 (pH 7.5, % of control metabolism, raloxifene G2, UGT1A1, inhibitor 50 μM), 79%; on UGT1A1 (pH 7.5, Inhibition of raloxifene glucuronidation, G1, UGT1A1, G1, inhibitor 50 μM, raloxifene 50 μM, 250 μg/ml Supersomes, 1 mM UDPGA, 15 min), 85%; on UGT1A1 (pH 7.5, Inhibition of raloxifene glucuronidation, G2, UGT1A1, G2, inhibitor 50 μM, raloxifene 50 μM, 250 μg/ml Supersomes, 1 mM UDPGA, 15 min), 79%; at UGT1A9 (setting [3]) it was 32%; on UGT1A9 (setting [4]) it was 29%. The activity at 15 min, 50 µM on UGT1A9 (setting [7]) amounted to 32%; on UGT1A9 (setting [8]), 29%. In addition, the activity at 15 min, 25 µM at UGT1A9 (setting [3]) came out at 56%; on UGT1A9 (setting [4]) it was 51%; on UGT1A9 (setting [7]), 56%; at UGT1A9 (setting [8]), 51%.

As for `O=C(O[C@@H]1Cc2c(O)cc(O)cc2O[C@H]1c1cc(O)c(O)c(O)c1)c1cc(O)c(O)c(O)c1` [Gallocatechin gallate], in data set [2] (inhibitor 10 μM), the “residual metabolism (% of control), 2ME2 MG1” value is 56 (1) % and the “residual metabolism (% of control), 2ME2 MG2” value is recorded as 84 (1) %.

Consider `CC(CCc1ccccc1)NCC(O)c1ccc(O)c(C(N)=O)c1` (centres unmarked) [Labetalol, labetalol], for which the “labetalol metabolism, in words” value at UGT1A4 was “No detectable metabolism was observed”. Besides, at UGT2B7, the LG1/LG2 is 12; the “labetalol metabolite LG1, peak area normalized to internal standard” value is recorded as 993 (52); the “labetalol metabolite LG2, peak area normalized to internal standard” value is 81 (3).

Regarding `CCCOC(=O)c1cc(O)c(O)c(O)c1` [Propyl gallate], the “% of control metabolism (SD, n = 3), 7-HFC glucuronidation” value in data set [1] (inhibitor 1000 μM) is 46 (1) %; in data set [1] (inhibitor 2000 μM), 32 (0) %. Besides, the activity at 15 min, 50 µM amounted to 72% on UGT1A1 (setting [3]); 73% at UGT1A1 (setting [4]); 72% at UGT1A1 (setting [5]); 73% on UGT1A1 (setting [6]); 48% on UGT1A9 (setting [3]); 51% at UGT1A9 (setting [4]).

Turning to `O=c1c(O)c(-c2ccc(O)c(O)c2)oc2cc(O)cc(O)c12` [Quercetin], on UGT1A1 (setting [3]), the activity at 15 min, 10 µM worked out at 45%; the activity at 15 min, 25 µM came out at 13%; the activity at 15 min, 50 µM amounted to 2%. Besides, on UGT1A1 (setting [4]), the activity at 15 min, 10 µM came out at 43%; the activity at 15 min, 25 µM was 13%; the activity at 15 min, 50 µM was 3%. Also, on UGT1A1 (setting [5]), the activity at 15 min, 2 μM is 89%; the activity at 15 min, 5 µM is 71%; the activity at 15 min, 25 µM amounted to 13%; the activity at 15 min, 50 µM was 2%. At UGT1A1 (setting [6]), this compound yielded an activity at 15 min, 2 μM of 90%; an activity at 15 min, 5 µM of 70%; an activity at 15 min, 25 µM of 13%; an activity at 15 min, 50 µM of 3%.

`O=C(OC[C@H]1O[C@@H](OC(=O)c2cc(O)c(O)c(OC(=O)c3cc(O)c(O)c(O)c3)c2)[C@H](OC(=O)c2cc(O)c(O)c(OC(=O)c3cc(O)c(O)c(O)c3)c2)[C@@H](OC(=O)c2cc(O)c(O)c(OC(=O)c3cc(O)c(O)c(O)c3)c2)[C@@H]1OC(=O)c1cc(O)c(O)c(OC(=O)c2cc(O)c(O)c(O)c2)c1)c1cc(O)c(O)c(OC(=O)c2cc(O)c(O)c(O)c2)c1` [Tannic acid]: the “% of control metabolism (SD, n = 3), 7-HFC glucuronidation” value is 72 (1) % in data set [1] (inhibitor 5 μM); 47 (2), % and 50 (1) % in data set [1] (inhibitor 10 μM). Further, the results for the “residual metabolism (% of control), 2ME2 MG1” value in data set [2] (inhibitor 2 μM), in data set [2] (inhibitor 5 μM) and in data set [2] (inhibitor 10 μM) were 62 (2) %, 39 (0) % and 24 (1) %, respectively. Also, the “residual metabolism (% of control), 2ME2 MG2” value in data set [2] (inhibitor 2 μM) was 105 (3) %; in data set [2] (inhibitor 5 μM), 91 (5) %; in data set [2] (inhibitor 10 μM), 69 (6) %.
